Data as given in PMC3931744, “Discovery of Selective Inhibitors of the Clostridium difficile Dehydroquinate Dehydratase” (PLoS ONE, 2014).
Several values for one entry are separate records, joined by “and”; a condition that tells them apart may be missing. Equal values may be shown once. Read-outs that look alike come from different tables or passages of the source.

Experiments:
[1] = molecular target: T1, cdDHQD (Clostridioides difficile, UniProt Q186A6); assay: biochemical; set-up: species or system Clostridium difficile
[2] = molecular target: T2, vcDHQD (type II DHQD) (Vibrio cholerae, UniProt Q9KV60); assay: vcDHQD inhibition, DHQD panel; type: biochemical
T2 sequence (Q9KV60 1-150): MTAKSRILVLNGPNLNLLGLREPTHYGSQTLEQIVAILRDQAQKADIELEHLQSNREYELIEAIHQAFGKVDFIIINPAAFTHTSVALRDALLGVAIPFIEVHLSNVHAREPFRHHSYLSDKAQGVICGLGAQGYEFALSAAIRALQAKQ

[3] = molecular target: T1, cdDHQD; assay: biochemical; conditions: Kd for binding to cdDHQD (WaterLOGSY), NMR titration; PBS pH 7.2, 25°C
[4] = molecular target: T3, seDHQD (Salmonella typhimurium, UniProt P58687); assay: WaterLOGSY NMR titration with seDHQD; conditions: Kd for binding to seDHQD (WaterLOGSY), PBS pH 7.2, 25°C
[5] = molecular target: T4, btDHQD (type II DHQD) (Bacteroides thetaiotaomicron, UniProt Q8A3W2); assay: btDHQD inhibition, primary screen DHQD assay
T4 sequence (Q8A3W2 1-140): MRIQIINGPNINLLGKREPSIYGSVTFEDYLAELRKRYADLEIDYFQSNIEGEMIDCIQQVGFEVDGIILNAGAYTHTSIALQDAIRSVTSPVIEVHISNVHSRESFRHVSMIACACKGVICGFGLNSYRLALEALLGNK

[6] = molecular target: ypDHQD (type II DHQD) (Yersinia pestis, UniProt Q8ZAX1); assay: biochemical
[7] = molecular target: T1, cdDHQD; assay: biochemical
[8] = molecular target: T3, seDHQD; assay: NMR line broadening with seDHQD; type: binding, Salmonella enterica; conditions: similar compound concentrations; 10 µM DHQD, 100 µM compound
Excerpt: Supplementary Figure S2. NMR data for binding of compounds 1 and 2 to cdDHQD. (A) Line broadening observed for compound 1 upon addition of cdDHQD or seDHQD. (B) Line broadening observed for compound 2 upon addition of cdDHQD or seDHQD. […] Line widths were estimated using NMRDraw (Delaglio et al., 1995).

[9] = molecular target: T1, cdDHQD; conditions: 10 µM DHQD, 100 µM compound
[10] = 200 µM compound, substrate up to 5 mM
[11] = type II DHQD, read-out: IC50 vcDHQD
[12] = Kd for binding to cdDHQD (line broadening, double reciprocal plot), NMR, PBS pH 7.2, 25°C
[13] = Kd for binding to cdDHQD, fit of single resonances, NMR titration, two different resonances per compound (Figure 3A, 3B)

T3 sequence (P58687 whole entry): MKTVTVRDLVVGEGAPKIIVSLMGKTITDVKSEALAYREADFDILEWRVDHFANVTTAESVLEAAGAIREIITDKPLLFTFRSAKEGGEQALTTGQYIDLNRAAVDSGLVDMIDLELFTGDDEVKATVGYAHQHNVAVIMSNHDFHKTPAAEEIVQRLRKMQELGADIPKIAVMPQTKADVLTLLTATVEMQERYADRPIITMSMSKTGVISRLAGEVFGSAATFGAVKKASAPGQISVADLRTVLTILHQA
T1 sequence (Q186A6 whole entry): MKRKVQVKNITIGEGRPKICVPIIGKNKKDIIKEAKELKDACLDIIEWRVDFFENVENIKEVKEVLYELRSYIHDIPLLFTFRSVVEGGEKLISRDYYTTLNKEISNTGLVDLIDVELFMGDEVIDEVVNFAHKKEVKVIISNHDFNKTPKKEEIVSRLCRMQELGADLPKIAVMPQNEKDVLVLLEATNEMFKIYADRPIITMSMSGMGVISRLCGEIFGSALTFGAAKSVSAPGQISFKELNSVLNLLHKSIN
Chain of ypDHQD (type II DHQD) (Q8ZAX1 whole entry, looked up): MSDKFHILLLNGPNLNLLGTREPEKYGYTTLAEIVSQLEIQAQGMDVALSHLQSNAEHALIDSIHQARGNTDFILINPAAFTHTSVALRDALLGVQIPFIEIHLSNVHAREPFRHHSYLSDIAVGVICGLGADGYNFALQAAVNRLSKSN

SMILES | Ki [1] | Vmax in presence of inhibitor [1, 10] | increase of apparent Km [1, 10] | mechanism of inhibition ([1]; from Km/Vmax at high substrate) | IC50 [2, 11] | Kd [3] | Kd [4] | IC50 [5] | IC50 [6] | Kd [7, 12] | Kd [7, 13] | line broadening of compound resonances with seDHQD [8] | line broadening of compound resonances with cdDHQD [9] | IC50 [2]
O=C(O)c1ccccc1NC(=O)c1csc2c1CCCC2 [Compound 3] | 19 to 22 µM | unchanged | 10 fold | competitive | > 200 µM | ~65 µM and 67 µM | ~400 µM and ~390 µM | > 200 µM | > 200 µM |  |  |  |  | 
O=S(=O)(Nc1nc(-c2ccccc2)cs1)c1cc(Cl)ccc1Cl [Compound 1] | 11 to 15 µM |  |  |  | > 200 µM |  |  | > 200 µM | > 200 µM | ~27 µM and ~25 µM | 35 µM and 18 µM | < 1 Hz | > 6 Hz | 
COc1ccc2nc(NS(=O)(=O)c3cc(Cl)ccc3Cl)sc2c1 [Compound 2] |  |  |  |  |  |  |  | > 200 µM | > 200 µM | ~25 µM | 15 µM and 34 µM | < 1 Hz | > 6 Hz | > 200 µM
